# Source: BindingDB's records for doi:10.1021/jm9706325 (Monash University (Parkville Campus), 1999)
# Biological target: 5-hydroxytryptamine receptor 1D (Bos taurus)
# Assay: Binding affinity against 5-hydroxytryptamine 1D receptor in calf caudate homogenates.
row,SMILES,Ki [nM]
1,CN(C)CCc1c(C(=O)NCc2ccccc2)[nH]c2ccc(CCN3C(=O)CNC3=O)cc12,1320
2,CN(C)CCc1c(C(=O)NCc2ccccc2)[nH]c2ccc(CCN3C(=O)NC(C)(C)C3=O)cc12,3800
